Earlier results, collected in US20180353540A1, “Pharmaceutical composition for treating leukemia and preparation method thereof” (Yi Fan Pharmaceutical Academy (Beijing) Co., Ltd., priority 2015, published 2018).

Experiments:
[1] = tested on: ME180 cells; conditions: non-toxic dose 0.5 μg/ml
[2] = tested on: HL-6 cells; conditions: non-toxic dose 0.5 μg/ml
[3] = tested on: SGC7901 human gastric adenocarcinoma cells

SMILES: CC1=C(/C=C/C(C)=C/C=C/C(C)=C/C(=O)O)C(C)(C)CCC1 [ATRA, all-trans retinoic acid]
- induced differentiation effect on ME180 cells [1]: better induced differentiation effects

SMILES: Cc1coc2c1C(=O)C(=O)c1c-2ccc2c1CCCC2(C)C [tanshinone IIA]
- expression of c-myc and H-ras oncogenes (RNA dot blot hybridization) ([1]; ME180 cell line): significantly reduced
- induced differentiation effect on ME180 cells [1]: better induced differentiation effects
- effect on HL-6 cells (differentiation, maturation, apoptosis) [2]: can induce differentiation and maturation of tumor cells, accompanied by apoptosis
- growth of SGC7901 human gastric adenocarcinoma cells in vitro [3]: significantly inhibits the growth
